Measured values taken from patent US10259847B2, “Beta-hairpin peptidomimetics” (POLYPHOR AG, priority 2014, dated 2019).
Read-outs that look alike come from different tables or passages of the source. Where a SMILES comes first, the peptide text is derived from it. Bridges are numbered along the chain shown (N, C = ends). [ ]: non-standard residue; d: D form. Tle = CC(C)(C)[C@H](N)C(=O)O; dDab = NCC[C@@H](N)C(=O)O; NMeA = CN[C@@H](C)C(=O)O; Dab = NCC[C@H](N)C(=O)O; Dap = NC[C@H](N)C(=O)O

Experiments:
Assay type in all cases: cell-based
[1] = test system: Escherichia coli ATCC 25922
Method: (§1) Stock solutions were kept at +4° C., light protected.
(§2) The selective antimicrobial activities of the peptides were determined in 96-well plates (Greiner, polystyrene) by the standard NCCLS broth microdilution method (National Committee for Clinical Laboratory Standards 1993. Methods for dilution antimicrobial susceptibility tests for bacteria that grow aerobically, 3rd ed. Approved standard M7-A6; National Committee for Clinical laboratory standards, Wayne, Pa.) with slight modifications. Inocula of the microorganisms were diluted into Mueller-Hinton II (MH, cation adjusted) broth and compared with a 0.5 McFarland standard to give appr. 10^6 colony forming units (CFU)/mL. Aliquots (90 μl) of inoculate were added to 10 μl of MH broth+P-80 (Polysorbate 80, 0.002% final concentration) containing the peptide in serial two-fold dilutions. The following microorganisms were used to determine antibiotic selectivity of the peptides: Escherichia coli ATCC 25922, Klebsiella pneumoniae ATCC 13883 and Acinetobacter baumannii DSM 30008.

[2] = test system: Klebsiella pneumoniae ATCC 13883
Method: as §1, §2

[3] = test system: Acinetobacter baumannii DSM 30008
Method: as §1, §2

[4] = test system: human red blood cells (hRBC); assay: Hemolysis of human red blood cells
Method: as §1
Percent hemolysis was calculated as follows: (OD540peptide/OD540H2O)×100%.

[5] = Mueller-Hinton broth II, 0.002% P-80, 18-20 hours at 35° C.
[6] = 100 μg/mL, 20% hRBC (v/v), 1 h at 37° C.

SMILES	Escherichia coli ATCC 25922 MIC [1, 5] [µg/mL]	Klebsiella pneumoniae ATCC 13883 MIC [2, 5] [µg/mL]	Acinetobacter baumannii DSM 30008 MIC [3, 5] [µg/mL]	Hemolysis at 100 μg/mL [4, 6] [%]	Escherichia coli ATCC 25922 MIC ([1]; ATCC 25922) [µg/mL]	Klebsiella pneumoniae ATCC 13883 MIC ([2]; ATCC 13883) [µg/mL]	Acinetobacter baumannii DSM 30008 MIC ([3]; DSM 30008) [µg/mL]	Hemolysis at 100 μg/mL ([4]; red cells of human, 1 h, 100) [%]
CC(C)C[C@@H]1NC(=O)[C@H](CCN)NC(=O)[C@H]2CCCN2C(=O)[C@H](C(C)C)NC(=O)[C@@H]2CSSC[C@H](NC1=O)C(=O)N[C@@H](Cc1ccc(O)cc1)C(=O)N[C@@H](C)C(=O)N[C@@H](CCN)C(=O)N[C@@H](CCN)C(=O)N[C@@H](CCN)C(=O)N[C@@H](Cc1c[nH]c3ccccc13)C(=O)N[C@@H](C)C(=O)N[C@@H](C(C)C)C(=O)N2 [Example 1, cyclo(-Leu-Cys-Tyr-Ala-Dab-Dab-Dab-Trp-Ala-Val-Cys-Val-^DPro-Dab-)] (HELM PEPTIDE1{A.[Dab].[Dab].[Dab].W.A.V.C.V.[dP].[Dab].L.C.Y}$PEPTIDE1,PEPTIDE1,8:R3-13:R3|PEPTIDE1,PEPTIDE1,1:R1-14:R2$$$V2.0)	4	2	2.5	2	–	–	–	–
CC(C)C[C@@H]1NC(=O)[C@H](CCN)NC(=O)[C@H]2CCCN2C(=O)[C@H](C(C)C)NC(=O)[C@@H]2CSSC[C@H](NC1=O)C(=O)N[C@@H](Cc1ccc(O)cc1)C(=O)N[C@@H](C)C(=O)N[C@@H](CCN)C(=O)N[C@H](CCN)C(=O)N[C@@H](CCN)C(=O)N[C@@H](Cc1c[nH]c3ccccc13)C(=O)N[C@@H](C)C(=O)N[C@@H](C(C)C)C(=O)N2 [Example 2, cyclo(-Leu-Cys-Tyr-Ala-Dab-^DDab-Dab-Trp-Ala-Val-Cys-Val-^DPro-Dab-)] (HELM PEPTIDE1{A.[Dab].[NCC[C@@H](N[*:1])C(=O)[*:2]].[Dab].W.A.V.C.V.[dP].[Dab].L.C.Y}$PEPTIDE1,PEPTIDE1,8:R3-13:R3|PEPTIDE1,PEPTIDE1,1:R1-14:R2$$$V2.0)	–	–	–	–	2	2	2.5	3
CC(C)C[C@@H]1NC(=O)[C@H](CCCCN)NC(=O)[C@H]2CCCN2C(=O)[C@H](C(C)C)NC(=O)[C@@H]2CSSC[C@H](NC1=O)C(=O)N[C@@H](Cc1ccc(O)cc1)C(=O)N[C@@H](C)C(=O)N[C@@H](CCCN)C(=O)N[C@H](CCN)C(=O)N[C@@H](CCN)C(=O)N[C@@H](Cc1c[nH]c3ccccc13)C(=O)N[C@@H](C)C(=O)N[C@@H](C(C)C)C(=O)N2 [Example 3, cyclo(-Leu-Cys-Tyr-Ala-Orn-^DDab-Dab-Trp-Ala-Val-Cys-Val-^DPro-Lys-)] (HELM PEPTIDE1{A.[Orn].[NCC[C@@H](N[*:1])C(=O)[*:2]].[Dab].W.A.V.C.V.[dP].K.L.C.Y}$PEPTIDE1,PEPTIDE1,8:R3-13:R3|PEPTIDE1,PEPTIDE1,1:R1-14:R2$$$V2.0)	–	–	–	–	2	4	1	3.5
CC(C)C[C@@H]1NC(=O)[C@H](CCCN)NC(=O)[C@H]2CCCN2C(=O)[C@H](C(C)C)NC(=O)[C@@H]2CSSC[C@H](NC1=O)C(=O)N[C@@H](Cc1ccc(O)cc1)C(=O)N[C@@H](C)C(=O)N[C@@H](CCCN)C(=O)N[C@H](CCN)C(=O)N[C@@H](CCN)C(=O)N[C@@H](Cc1c[nH]c3ccccc13)C(=O)N[C@@H](C)C(=O)N[C@@H](C(C)C)C(=O)N2 [Example 4, cyclo(-Leu-Cys-Tyr-Ala-Orn-^DDab-Dab-Trp-Ala-Val-Cys-Val-^DPro-Orn-)] (HELM PEPTIDE1{A.[Orn].[NCC[C@@H](N[*:1])C(=O)[*:2]].[Dab].W.A.V.C.V.[dP].[Orn].L.C.Y}$PEPTIDE1,PEPTIDE1,8:R3-13:R3|PEPTIDE1,PEPTIDE1,1:R1-14:R2$$$V2.0)	–	–	–	–	2	4	2	2.5
CC(C)C[C@@H]1NC(=O)[C@H](CCN)NC(=O)[C@H]2CCCN2C(=O)[C@H](C(C)C)NC(=O)[C@@H]2CSSC[C@H](NC1=O)C(=O)N[C@@H](Cc1ccc(O)cc1)C(=O)N[C@@H](C)C(=O)N[C@@H](CCCN)C(=O)N[C@H](CCN)C(=O)N[C@@H](CCN)C(=O)N[C@@H](Cc1c[nH]c3ccccc13)C(=O)N[C@@H](C)C(=O)N[C@@H](C(C)C)C(=O)N2 [Example 5, cyclo(-Leu-Cys-Tyr-Ala-Orn-^DDab-Dab-Trp-Ala-Val-Cys-Val-^DPro-Dab-)] (HELM PEPTIDE1{A.[Orn].[NCC[C@@H](N[*:1])C(=O)[*:2]].[Dab].W.A.V.C.V.[dP].[Dab].L.C.Y}$PEPTIDE1,PEPTIDE1,8:R3-13:R3|PEPTIDE1,PEPTIDE1,1:R1-14:R2$$$V2.0)	–	–	–	–	2	2	1	3
CC(C)C[C@@H]1NC(=O)[C@H](CN)NC(=O)[C@H]2CCCN2C(=O)[C@H](C(C)C)NC(=O)[C@@H]2CSSC[C@H](NC1=O)C(=O)N[C@@H](Cc1ccc(O)cc1)C(=O)N[C@@H](C)C(=O)N[C@@H](CCCN)C(=O)N[C@H](CCN)C(=O)N[C@@H](CCN)C(=O)N[C@@H](Cc1c[nH]c3ccccc13)C(=O)N[C@@H](C)C(=O)N[C@@H](C(C)C)C(=O)N2 [Example 6, cyclo(-Leu-Cys-Tyr-Ala-Orn-^DDab-Dab-Trp-Ala-Val-Cys-Val-^DPro-Dap-)] (HELM PEPTIDE1{A.[Orn].[NCC[C@@H](N[*:1])C(=O)[*:2]].[Dab].W.A.V.C.V.[dP].[NC[C@H](N[*:1])C(=O)[*:2]].L.C.Y}$PEPTIDE1,PEPTIDE1,8:R3-13:R3|PEPTIDE1,PEPTIDE1,1:R1-14:R2$$$V2.0)	–	–	–	–	2	2	1.5	5
CC[C@H](C)[C@@H]1NC(=O)[C@@H]2CCCN2C(=O)[C@H]2CCCN2C(=O)[C@H](Cc2ccc(O)cc2)NC(=O)[C@@H]2CSSC[C@H](NC1=O)C(=O)N[C@@H](Cc1ccc(O)cc1)C(=O)N[C@@H](CCN)C(=O)N[C@@H](CCCN)C(=O)N[C@H](CCN)C(=O)N[C@@H](CCN)C(=O)N[C@@H](CC(C)C)C(=O)N[C@@H](CCN)C(=O)N[C@@H](C(C)C)C(=O)N2 [Example 7, cyclo(-Ile-Cys-Tyr-Dab-Orn-^DDab-Dab-Leu-Dab-Val-Cys-Tyr-^DPro-Pro-)] (HELM PEPTIDE1{I.C.Y.[Dab].[Orn].[NCC[C@@H](N[*:1])C(=O)[*:2]].[Dab].L.[Dab].V.C.Y.[dP].P}$PEPTIDE1,PEPTIDE1,2:R3-11:R3|PEPTIDE1,PEPTIDE1,1:R1-14:R2$$$V2.0)	–	–	–	–	0.5	0.25	1	11
CC(C)[C@@H]1NC(=O)[C@@H]2CCCN2C(=O)[C@H]2CCCN2C(=O)[C@H]([C@@H](C)O)NC(=O)[C@@H]2CSSC[C@H](NC1=O)C(=O)N[C@@H](Cc1ccc(O)cc1)C(=O)N[C@@H](CCN)C(=O)N[C@@H](CN)C(=O)N[C@@H](CCN)C(=O)N[C@@H](CCN)C(=O)N[C@@H](Cc1c[nH]c3ccccc13)C(=O)N[C@@H](CCN)C(=O)N[C@@H](C(C)(C)C)C(=O)N2 [Example 8, cyclo(-Val-Cys-Tyr-Dab-Dap-Dab-Dab-Trp-Dab-tBuGly-Cys-Thr-^DPro-Pro-)] (HELM PEPTIDE1{V.C.Y.[Dab].[NC[C@H](N[*:1])C(=O)[*:2]].[Dab].[Dab].W.[Dab].[CC(C)(C)[C@H](N[*:1])C(=O)[*:2]].C.T.[dP].P}$PEPTIDE1,PEPTIDE1,2:R3-11:R3|PEPTIDE1,PEPTIDE1,1:R1-14:R2$$$V2.0)	1	0.5	2	1	–	–	–	–
CC(C)[C@@H]1NC(=O)[C@H](C)N(C)C(=O)[C@H]2CCCN2C(=O)[C@H](CO)NC(=O)[C@@H]2CSSC[C@H](NC1=O)C(=O)N[C@@H](Cc1ccc(O)cc1)C(=O)N[C@@H](CCN)C(=O)N[C@@H](CN)C(=O)N[C@H](CCN)C(=O)N[C@@H](CCN)C(=O)N[C@@H](Cc1c[nH]c3ccccc13)C(=O)N[C@@H](CCN)C(=O)N[C@@H](C(C)(C)C)C(=O)N2 [Example 9, cyclo(-Val-Cys-Tyr-Dab-Dap-^DDab-Dab-Trp-Dab-tBuGly-Cys-Ser-^DPro-NMeAla-)] (cyclo(CS[dP][NMeA]VCY[Dab][Dap][dDab][Dab]W[Dab][Tle]); disulfide 1-6)	–	–	–	–	0.5	1	1	6
